Residues, ends and D or L forms follow the SMILES beside them. No end group written: not given here.
Experiments:
Test in all cases: biochemical
Type in all cases: binding
HLA-A3.2 (A*0301) = HLA-A3.2 (A*0301) (Homo sapiens, UniProt P04439); settings: for A*0301 binding: Table 11, binding value, no unit; for A3.2: Table 164, MAGE peptides, binding value to HLA-A3.2, no unit given
HLA-A11 (A*1101) = HLA-A11 (A*1101) (Homo sapiens, UniProt P04439, A114D/D185E/E176A/F33Y/L180Q/S129P/T187R); parameters: A11: unit not given here
A*3301 = A*3301 (Homo sapiens, UniProt P04439, A270S/D185E/E176V/E277Q/E87N/F33T/G231S/H175R/I121M/I218V/I322F/K168Q/K210R/L300P/L318F/M331R/P217A/Q86R/Q94H/R138Q/T323A/T345S/T97I/V358M/Y195H)
A31 (A*3101) = A31 (A*3101) (Homo sapiens, UniProt P04439, A270S/D185E/E176V/E277Q/F33T/G231S/G80R/H175R/I121M/I218V/I322F/K168Q/L300P/L318F/M331R/P217A/Q94H/R138Q/T323A/T345S/T97I/V358M)
HLA-A*0201 (HLA-A2.1) = HLA-A*0201 (HLA-A2.1) (Homo sapiens, UniProt P04439, D140Y/D185E/D98H/E176V/E277Q/G131W/G231S/I119V/I121R/I166T/I218V/L300P/L318F/N151K/N90K/P208A/P217A/Q86G/Q94H/R138H/R169H/T345S)
A*6801 = A*6801 (Homo sapiens, UniProt P04439, A269V/D185E/E176V/E277Q/E87N/F33Y/G231S/I121M/I166T/I218V/L180W/L300P/L318F/N151K/P208A/P217A/Q86R/R169H/T345S)

Compound | A*0301 binding (HLA-A3.2 (A*0301)) | A*1101 binding (HLA-A11 (A*1101)) | IC50 (A*3301) [µM] | IC50 (HLA-A3.2 (A*0301)) [µM] | IC50 (A31 (A*3101)) [µM] | IC50 (HLA-A11 (A*1101)) [µM] | A3.2 (HLA-A3.2 (A*0301)) | A2.1 (HLA-A*0201 (HLA-A2.1)) | A11 (HLA-A11 (A*1101)) | IC50 (A*6801) [µM]
34.0050 (RVCACPGR) [Peptide 34.0050] | 0.3500 | 0.0490 |  |  |  |  |  |  |  | 
34.0171 (SSBMGGMNK) [Peptide 34.0171] | 0.5440 | 1.1000 |  |  |  |  |  |  |  | 
34.0232 (RVCACPGRDK) [Peptide 34.0232] | 0.0190 | 0.0250 |  |  |  |  |  |  |  | 
34.0323 (RVCACPGRDRR) [Peptide 34.0323] | 0.0290 | 0.0290 |  |  |  |  |  |  |  | 
CC[C@H](C)[C@H](NC(=O)[C@H](CS)NC(=O)[C@H](CCCNC(=N)N)NC(=O)[C@@H](NC(=O)[C@@H](N)CC(C)C)[C@@H](C)CC)C(=O)N[C@H](C(=O)N[C@@H](CS)C(=O)N[C@@H](CCC(N)=O)C(=O)N[C@@H](CCCCN)C(=O)O)[C@@H](C)CC [Peptide 88.0298] (H-LIRCIICQK-OH) |  |  | 0.834 | 0.445 | 0.639 | 0.252 |  |  |  | 
AAEGVGAVSR [Peptide 9017.0188] |  |  | 4.12 | 16 | 2.68 | 0.992 |  |  |  | 
ALTALITPK [Peptide 9017.0099] |  |  |  | 0.017 | 0.439 | 0.016 |  |  |  | 
ALTALITPKK [Peptide 9017.0230] |  |  | > 20 | 0.044 | 7.41 | 0.0068 |  |  |  | 
EVYDGREHSA |  |  |  |  |  |  | <0.0002 | 0 | 0 | 
F119.01 (MSLQRQFLR) [Peptide F119.01] | 0.2000 | 0.7200 |  |  |  |  |  |  |  | 
F119.02 (LLGPGRPYR) [Peptide F119.02] | 0.0190 | 0.0091 |  |  |  |  |  |  |  | 
FAFTDLTIVY [Peptide 78.0103] |  |  | > 20 | > 20 | > 20 | > 20 |  |  |  | 
FLGALKSFLK [Peptide 88.0148] |  |  |  | 0.027 | 0.327 | 0.12 |  |  |  | 
FLIIVLVMIA |  |  |  |  |  |  | 0.0093 | 0.0003 | 0.0030 | 
FTDLTIVYR [Peptide 78.0313] |  |  | 0.585 | > 20 | 0.602 | 2.66 |  |  |  | 
GLYYIHGNEK [Peptide 1589.40] |  |  | 4.51 | 0.017 | 0.141 | 0.018 |  |  |  | 
GVSIEWRQR [Peptide 9017.0087] |  |  | 2.09 | 13.1 | 0.335 | 1.22 |  |  |  | 
ISKQPLPQTR [Peptide 9017.0207] |  |  | 2.58 | > 20 | 0.083 | > 20 |  |  |  | 
IVFIEYRKIR [Peptide 9017.0245] |  |  | 0.312 | 4.37 | 0.012 | 1.47 |  |  |  | 
KQFLQGVPK [Peptide 88.0390] |  |  | 5.18 | 0.032 | 0.044 | 0.017 |  |  |  | 
KQMSMSQWIK [Peptide 1587.09] |  |  |  | 0.049 | 0.05 | 0.017 |  |  |  | 
KSLFGMSLMK [Peptide 1587.13] |  |  | > 20 | 0.0044 | 0.271 | 0.0015 |  |  |  | 

Compound | A*0301 binding (HLA-A3.2 (A*0301)) | A*1101 binding (HLA-A11 (A*1101)) | IC50 (A*3301) [µM] | IC50 (HLA-A3.2 (A*0301)) [µM] | IC50 (A31 (A*3101)) [µM] | IC50 (HLA-A11 (A*1101)) [µM] | A3.2 (HLA-A3.2 (A*0301)) | A2.1 (HLA-A*0201 (HLA-A2.1)) | A11 (HLA-A11 (A*1101)) | IC50 (A*6801) [µM]
KVCSGVDYR [Peptide 1589.35] |  |  | 5.78 | > 20 |  | 5.17 |  |  |  | 
LALTALITPK [Peptide 9017.0228] |  |  | > 20 | 0.088 | 1.73 | 0.0066 |  |  |  | 
LQMALETLSK [Peptide 88.0214] |  |  | > 20 | 0.559 | 10.6 | 0.022 |  |  |  | 
LQQTSLEMWR [Peptide 88.0228] |  |  | > 20 | 13.1 |  | 0.445 |  |  |  | 
LVFGIDVKEA |  |  |  |  |  |  | <0.0002 | 0.0002 | 0 | 
MLIQPPKLR [Peptide 88.0340] |  |  | 0.146 | 16.2 | 0.699 |  |  |  |  | 0.025
NTKATLLYK [Peptide 88.0385] |  |  | 0.168 | 0.396 | 3.82 | 0.109 |  |  |  | 
NTNAGTDPR [Peptide 88.0372] |  |  | 0.418 | 1.12 | 7.02 |  |  |  |  | 0.05
QLALEALNK [Peptide 88.0424] |  |  | > 20 | 0.166 | > 20 | 0.155 |  |  |  | 
QQRSLTEILK [Peptide 9012.0218] |  |  | > 20 | 0.52 |  | 0.093 |  |  |  | 
QTRSLTEILK [Peptide 9012.0217] |  |  | 19.8 | 0.25 | 3.17 | 0.096 |  |  |  | 
RFHNIAGHYR [Peptide 78.0097] |  |  | 0.099 | 2.46 | 0.011 |  |  |  |  | 0.151
RFLSKISEYR [Peptide 1571.13] |  |  | 0.02 | 1.8 | 0.014 |  |  |  |  | 0.017
RIGILRQRR [Peptide 9017.0113] |  |  |  | 0.277 | 0.0076 | 1.14 |  |  |  | 
RILSTCLGR [Peptide 9017.0073] |  |  | 1.45 | 0.058 | 0.0085 |  |  |  |  | 1.45
RLCDHIDYWK [Peptide 1589.11] |  |  | > 20 | 0.457 | 1.63 |  |  |  |  | 17.1
RLIDRIRER [Peptide 9017.0123] |  |  | 0.937 | 0.036 | 0.0046 | 0.137 |  |  |  | 
SFTDLVRNFK [Peptide 88.0143] |  |  | 0.056 | 1.59 | 0.047 |  |  |  |  | 0.022
SLARRHIAR [Peptide 9017.0067] |  |  | 0.03 | 0.066 | 0.0015 | 1.1 |  |  |  | 
SLKCLRYRLK [Peptide 88.0217] |  |  | 18.8 | 0.074 | 2.69 |  |  |  |  | 12.6
SQRLNACQNK [Peptide 1589.34] |  |  | > 20 | 2.7 | 5.96 |  |  |  |  | > 20
SQRLNVCQDK [Peptide 88.0205] |  |  | > 20 | 1.87 | 13.4 |  |  |  |  | > 20

Compound | A*0301 binding (HLA-A3.2 (A*0301)) | A*1101 binding (HLA-A11 (A*1101)) | IC50 (A*3301) [µM] | IC50 (HLA-A3.2 (A*0301)) [µM] | IC50 (A31 (A*3101)) [µM] | IC50 (HLA-A11 (A*1101)) [µM] | A3.2 (HLA-A3.2 (A*0301)) | A2.1 (HLA-A*0201 (HLA-A2.1)) | A11 (HLA-A11 (A*1101)) | IC50 (A*6801) [µM]
SQTCALYWFR [Peptide 88.0165] |  |  | 0.26 | 4.85 |  | 1.83 |  |  |  | 
SQWIKYRCSK [Peptide 88.0174] |  |  | 3.4 | 0.944 | 0.323 |  |  |  |  | > 20
STWHWTSDDK [Peptide 1589.43] |  |  | > 20 | 0.342 | 5.3 | 0.047 |  |  |  | 
SVRKLVEDR [Peptide 9017.0105] |  |  | 0.187 | 5.1 | 0.015 | 1.14 |  |  |  | 
TTITVYAEPPR [Peptide 1556.07] |  |  | 2.55 | > 20 | 0.577 |  |  |  |  | 0.02
TVDVYMIMVK [Peptide 9012.0257] |  |  | > 20 | 11.1 | > 20 | 0.095 |  |  |  | 
TVRHKKLMFK [Peptide 1556.79] |  |  | 11.8 | 0.44 | 5.1 | 0.188 |  |  |  | 
TVSATQIVR [Peptide 1589.26] |  |  | 0.645 | 2.54 | 0.213 |  |  |  |  | 0.014
TVWNPPTTAK [Peptide 1556.03] |  |  | 1.58 | 0.025 | 9.19 | 0.026 |  |  |  | 
VFGIDVKEA |  |  |  |  |  |  | <0.0002 | <0.0002 | 0 | 
VLCGPPNTGK [Peptide 88.0189] |  |  | > 20 | 0.141 | 0.37 | 0.22 |  |  |  | 
VLILALLRYK [Peptide 88.0144] |  |  |  | 0.052 |  | 0.266 |  |  |  | 
VLYGPANTGK [Peptide 88.0180] |  |  |  | 0.0098 | 1.93 | 0.025 |  |  |  | 
VSIEWRKRR [Peptide 9017.0090] |  |  | 0.058 | 2.65 | 0.0092 | 0.077 |  |  |  | 
VTIKIGGQIK [Peptide 1516.02] |  |  | > 20 | 1.11 | 19.3 | 0.184 |  |  |  | 
VVCTYSPALNK [Peptide 1556.35] |  |  | > 20 | 0.37 | 5.19 | 0.104 |  |  |  | 
VVFGILIKRK [Peptide 9012.0246] |  |  | 10.1 | 0.054 | 2.6 | 0.013 |  |  |  | 
VVPALSVSK [Peptide 1589.14] |  |  | > 20 | 0.515 | > 20 | 0.033 |  |  |  | 
VVYRLVWDK [Peptide 1589.38] |  |  | 3.78 | 0.063 | 0.989 | 0.013 |  |  |  | 
YLALTALIK [Peptide 9017.0097] |  |  | > 20 | 0.235 | > 20 |  |  |  |  | 5.9
